Source: patent US20250154686A1, “COMPOUND LIBRARY” (CHUGAI SEIYAKU KABUSHIKI KAISHA, priority 2021, published 2025)

Biological target: T1, Bcl-2 protein (Recombinant Human Bcl-2 Protein) (Homo sapiens, UniProt P10415)
T1 construct: purchased Novus Biologicals NBP2-34889
Test: AS-MS evaluation of binding of the Example 4 mixture library (1200 compounds/well) to Bcl-2, ASMS ratio (%)
Settings: Example 4 mixture library
In short: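 Affinity-selection MS: 1200 cpds/well, 20 nM each; hBcl-2 20 μM; 25 mM Tris pH 7.4/150 mM NaCl/0.025% Tween-20/1 mM DTT; 1 h, 23 °C, dark; P-2 size-exclusion spin, MeCN:MeOH 1:1 extraction; RP LC/MS; ratio vs no-protein STD and SEC blank.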

[1] = 1200 compounds/well, Bcl-2 protein, replicate n = 2, value belongs to the MS peak assignable to the compound

T1 sequence (P10415 whole entry): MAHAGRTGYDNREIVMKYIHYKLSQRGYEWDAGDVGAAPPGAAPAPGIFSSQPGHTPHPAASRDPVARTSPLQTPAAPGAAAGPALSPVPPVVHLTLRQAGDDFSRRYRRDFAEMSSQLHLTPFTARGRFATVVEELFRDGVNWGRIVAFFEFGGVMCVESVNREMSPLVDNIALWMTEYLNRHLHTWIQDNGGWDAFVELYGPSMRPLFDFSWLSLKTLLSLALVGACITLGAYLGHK

Structure (SMILES) | ASMS ratio (%) n = 1 (AS-MS, Bcl-2, replicate n = 1) [%] | ASMS ratio (%) n = 2 (AS-MS, Bcl-2, replicate n = 2) [%] | ASMS ratio (%) n = 1 (1200 compounds/well, Bcl-2 protein, replicate n = 1, value belongs to the MS peak assignable to the compound) [%] | ASMS ratio (%) n = 2 [1] [%]
CCOc1cccc(-c2cc(OC)c(CN3CCN(c4ccc(C(=O)NS(=O)(=O)CCC(F)(F)F)nn4)CC3)c(OC)c2)c1 [Compound B2N085-01, 6-[4-[[4-(3-Ethoxyphenyl)-2,6-dimethoxyphenyl]methyl]piperazin-1-yl]-N-(3,3,3-trifluoropropylsulfonyl)pyridazine-3-carboxamide] | 0.0 | 0.0 | – | –
CCOc1cncc(-c2cc(OC)c(CN3CCN(c4ccc(C(=O)NS(=O)(=O)CCC(F)(F)F)nn4)CC3)c(OC)c2)c1 [Compound B2N086-01, 6-[4-[[4-(5-Ethoxypyridin-3-yl)-2,6-dimethoxyphenyl]methyl]piperazin-1-yl]-N-(3,3,3-trifluoropropylsulfonyl)pyridazine-3-carboxamide] | 0.0 | 0.0 | – | –
CCOc1cccc(-c2cc(CN3CCN(c4ccc(C(=O)NS(=O)(=O)CCC(F)(F)F)nn4)CC3)cc(C(F)(F)F)c2)c1 [Compound B2N087-01, 6-[4-[[3-(3-Ethoxyphenyl)-5-(trifluoromethyl)phenyl]methyl]piperazin-1-yl]-N-(3,3,3-trifluoropropylsulfonyl)pyridazine-3-carboxamide] | 0.0 | 0.0 | – | –
CCOc1cncc(-c2cc(CN3CCN(c4ccc(C(=O)NS(=O)(=O)CCC(F)(F)F)nn4)CC3)cc(C(F)(F)F)c2)c1 [Compound B2N088-01, 6-[4-[[3-(5-Ethoxypyridin-3-yl)-5-(trifluoromethyl)phenyl]methyl]piperazin-1-yl]-N-(3,3,3-trifluoropropylsulfonyl)pyridazine-3-carboxamide] | 0.0 | 0.0 | – | –
CCOc1cccc(-c2cc(CN3CCN(c4ccc(C(=O)NS(=O)(=O)CCC(F)(F)F)nn4)CC3)cc(OC(F)(F)F)c2)c1 [Compound B2N089-01, 6-[4-[[3-(3-Ethoxyphenyl)-5-(trifluoromethoxy)phenyl]methyl]piperazin-1-yl]-N-(3,3,3-trifluoropropylsulfonyl)pyridazine-3-carboxamide] | – | 0.0 | – | –
CCOc1cncc(-c2cc(CN3CCN(c4ccc(C(=O)NS(=O)(=O)CCC(F)(F)F)nn4)CC3)cc(OC(F)(F)F)c2)c1 [Compound B2N090-01, 6-[4-[[3-(5-Ethoxypyridin-3-yl)-5-(trifluoromethoxy)phenyl]methyl]piperazin-1-yl]-N-(3,3,3-trifluoropropylsulfonyl)pyridazine-3-carboxamide] | 0.0 | 0.0 | – | –
CCOc1cccc(-c2ccc(CN3CCN(c4ccc(C(=O)NS(=O)(=O)CCC(F)(F)F)nn4)CC3)c3ccccc23)c1 [Compound B2N091-01, 6-[4-[[4-(3-Ethoxyphenyl)naphthalen-1-yl]methyl]piperazin-1-yl]-N-(3,3,3-trifluoropropylsulfonyl)pyridazine-3-carboxamide] | 0.0 | 0.0 | – | –
CCOc1cncc(-c2ccc(CN3CCN(c4ccc(C(=O)NS(=O)(=O)CCC(F)(F)F)nn4)CC3)c3ccccc23)c1 [Compound B2N092-01, 6-[4-[[4-(5-Ethoxypyridin-3-yl)naphthalen-1-yl]methyl]piperazin-1-yl]-N-(3,3,3-trifluoropropylsulfonyl)pyridazine-3-carboxamide] | 0.0 | 0.0 | – | –
CCOc1cccc(-c2csc(CN3CCN(c4ccc(C(=O)NS(=O)(=O)CCC(F)(F)F)nn4)CC3)c2)c1 [Compound B2N093-01] | 0.0 | – | – | –
CCOc1cncc(-c2csc(CN3CCN(c4ccc(C(=O)NS(=O)(=O)CCC(F)(F)F)nn4)CC3)c2)c1 [Compound B2N094-01, 6-[4-[[4-(5-Ethoxypyridin-3-yl)thiophen-2-yl]methyl]piperazin-1-yl]-N-(3,3,3-trifluoropropylsulfonyl)pyridazine-3-carboxamide] | 0.0 | 0.0 | – | –

Second part, the compound after the results:

ASMS ratio (%) n = 1 (AS-MS, Bcl-2, replicate n = 1) [%] | ASMS ratio (%) n = 2 (AS-MS, Bcl-2, replicate n = 2) [%] | ASMS ratio (%) n = 1 (1200 compounds/well, Bcl-2 protein, replicate n = 1, value belongs to the MS peak assignable to the compound) [%] | ASMS ratio (%) n = 2 [1] [%] | Structure (SMILES)
0.0 | 0.0 | – | – | CCOc1cccc(C#Cc2ccccc2CN2CCN(c3ccc(C(=O)NS(=O)(=O)CCC(F)(F)F)nn3)CC2)c1 [Compound B2N095-01]
0.0 | 0.0 | – | – | CCOc1cccc(-c2ccc(C(C)N3CCN(c4ccc(C(=O)NS(=O)(=O)CCC(F)(F)F)cc4)CC3)cc2)c1 (stereo not drawn) [Compound B2N097-01, 4-[4-[1-[4-(3-Ethoxyphenyl)phenyl]ethyl]piperazin-1-yl]-N-(3,3,3-trifluoropropylsulfonyl)benzamide]
0.0 | −0.7 | – | – | CCOc1cncc(-c2ccc(C(C)N3CCN(c4ccc(C(=O)NS(=O)(=O)CCC(F)(F)F)cc4)CC3)cc2)c1 (stereo not drawn) [Compound B2N098-01, 4-[4-[1-[4-(5-Ethoxypyridin-3-yl)phenyl]ethyl]piperazin-1-yl]-N-(3,3,3-trifluoropropylsulfonyl)benzamide]
0.0 | 0.0 | – | – | CCOc1cccc(-c2ccc(C(C)N3CCN(c4ccc(C(=O)NS(=O)(=O)CCC(F)(F)F)cc4)CC3)c(F)c2)c1 (stereo not drawn) [Compound B2N099-01, 4-[4-[1-[4-(3-Ethoxyphenyl)-2-fluorophenyl]ethyl]piperazin-1-yl]-N-(3,3,3-trifluoropropylsulfonyl)benzamide]
0.0 | 0.0 | – | – | CCOc1cncc(-c2ccc(C(C)N3CCN(c4ccc(C(=O)NS(=O)(=O)CCC(F)(F)F)cc4)CC3)c(F)c2)c1 (stereo not drawn) [Compound B2N100-01, 4-[4-[1-[4-(5-Ethoxypyridin-3-yl)-2-fluorophenyl]ethyl]piperazin-1-yl]-N-(3,3,3-trifluoropropylsulfonyl)benzamide]
– | – | 3.9 | 1.5 | CCOc1cncc(-c2cc(C(=O)N3CCN(c4ccc(C(=O)NS(=O)(=O)c5ccc(NCCSc6ccccc6)c([N+](=O)[O-])c5)cc4)CC3)cc(C(F)(F)F)c2)c1 [Compound B2Q040-01, 4-[4-[3-(5-Ethoxypyridin-3-yl)-5-(trifluoromethyl)benzoyl]piperazin-1-yl]-N-[3-nitro-4-(2-phenylsulfanylethylamino)phenyl]sulfonylbenzamide]
– | – | – | −15.0 | CCOc1cccc(-c2cc(CN3CCN(c4ccc(C(=O)NS(=O)(=O)c5ccc(NCCSc6ccccc6)c([N+](=O)[O-])c5)nn4)CC3)cc(OC(F)(F)F)c2)c1 [Compound B2Q089-01, 6-[4-[[3-(3-Ethoxyphenyl)-5-(trifluoromethoxy)phenyl]methyl]piperazin-1-yl]-N-[3-nitro-4-(2-phenylsulfanylethylamino)phenyl]sulfonylpyridazine-3-carboxamide]
0.0 | 0.0 | – | – | CCOc1cncc(-c2csc(C(=O)N3CCN(c4ccc(C(=O)NS(=O)(=O)c5ccc(NCCSc6ccccc6)c(C(F)(F)F)c5)nn4)CC3)c2)c1 [Compound B2R002-01, 6-[4-[4-(5-Ethoxypyridin-3-yl)thiophene-2-carbonyl]piperazin-1-yl]-N-[4-(2-phenylsulfanylethylamino)-3-(trifluoromethyl)phenyl]sulfonylpyridazine-3-carboxamide]
21.6 | 0.0 | – | – | CCOc1cccc(-c2ccc(C(=O)N3CCN(c4ccc(C(=O)NS(=O)(=O)c5ccc(NCCSc6ccccc6)c(C(F)(F)F)c5)nn4)CC3)cc2C)c1 [Compound B2R003-01, 6-[4-[4-(3-Ethoxyphenyl)-3-methylbenzoyl]piperazin-1-yl]-N-[4-(2-phenylsulfanylethylamino)-3-(trifluoromethyl)phenyl]sulfonylpyridazine-3-carboxamide]
0.0 | 0.0 | – | – | CCOc1cncc(-c2ccc(C(=O)N3CCN(c4ccc(C(=O)NS(=O)(=O)c5ccc(NCCSc6ccccc6)c(C(F)(F)F)c5)nn4)CC3)cc2C)c1 [Compound B2R004-01, 6-[4-[4-(5-Ethoxypyridin-3-yl)-3-methylbenzoyl]piperazin-1-yl]-N-[4-(2-phenylsulfanylethylamino)-3-(trifluoromethyl)phenyl]sulfonylpyridazine-3-carboxamide]
44.0 | 39.5 | – | – | CCOc1cccc(-c2ccc(C(=O)N3CCN(c4ccc(C(=O)NS(=O)(=O)c5ccc(NCCSc6ccccc6)c(C(F)(F)F)c5)nn4)CC3)cc2F)c1 [Compound B2R005-01, 6-[4-[4-(3-Ethoxyphenyl)-3-fluorobenzoyl]piperazin-1-yl]-N-[4-(2-phenylsulfanylethylamino)-3-(trifluoromethyl)phenyl]sulfonylpyridazine-3-carboxamide]
0.0 | – | – | – | CCOc1cccc(C#Cc2ccccc2C(=O)N2CCN(c3ccc(C(=O)NS(=O)(=O)c4ccc(NCCSc5ccccc5)c(C(F)(F)F)c4)nn3)CC2)c1 [Compound B2R007-01, 6-[4-[2-[2-(3-Ethoxyphenyl)ethynyl]benzoyl]piperazin-1-yl]-N-[4-(2-phenylsulfanylethylamino)-3-(trifluoromethyl)phenyl]sulfonylpyridazine-3-carboxamide]
0.0 | 19.5 | – | – | CCOc1cncc(C#Cc2ccccc2C(=O)N2CCN(c3ccc(C(=O)NS(=O)(=O)c4ccc(NCCSc5ccccc5)c(C(F)(F)F)c4)nn3)CC2)c1 [Compound B2R008-01, 6-[4-[2-[2-(5-Ethoxypyridin-3-yl)ethynyl]benzoyl]piperazin-1-yl]-N-[4-(2-phenylsulfanylethylamino)-3-(trifluoromethyl)phenyl]sulfonylpyridazine-3-carboxamide]
